According to the supplement of paper PMC8671470:

Experiments:
Details in all cases: 72 h
KCL-22 [1] = tested on: KCL-22
Procedure, shortened: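 The IC50 was read from log-logistic dose–response fits. Fifteen myeloid leukaemia lines were exposed for 72 h at 37 °C with 5% CO2 to five tenfold doses from 1 to 10,000 nM in duplicate. ATP luminescence, normalised to vehicle and to a 10 µM positive control, was fitted with four parameters.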

HL-60 [2] = test: cell viability (% survival relative to DMSO control); higher = less cytotoxic
Procedure, shortened: (§1)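 For each screen, HL-60 cells in RPMI 1640 with 10% FBS carried either DMSO or 100 nM of one of three metabolic inhibitors while the full library was applied at five tenfold concentrations, 1–10,000 nM, in duplicate. Plates were 384-well and were kept 72 h at 37 °C, 5% CO2. Viability, measured by CellTiter-Glo, was normalised to wells with DMSO and with 10 μM proteasome inhibitor. Where area under the curve appears, it was fitted by four-parameter log-logistic models in drc and PharmacoGx.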

BV-173 = test: cell viability (% survival relative to DMSO control, bortezomib = 0%); higher = less cytotoxic
Procedure, shortened: (§2)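 Percent survival is reported as the mean of duplicate wells. Cells from 10 AML and 5 CML lines were plated in 384-well plates containing compounds at 1, 10, 100, 1000 or 10000 nM and kept for 72 h at 37 °C in 5% CO2. Readout used CellTiter-Glo luminescence, scaled so that vehicle equals 100% and a 10 µM positive control equals 0%.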

HEL = test: as above
Procedure, shortened: as §2

HL-60 [3] = test: as above
Procedure, shortened: as §2

K-562 = test: as above
Procedure, shortened: as §2

KCL-22 [4] = test: as above
Procedure, shortened: as §2

KG-1 = test: as above
Procedure, shortened: as §2

KU-812 = test: as above
Procedure, shortened: as §2

LAMA-84 = test: as above
Procedure, shortened: as §2

ML-2 = test: as above
Procedure, shortened: as §2

MOLM-13 = test: as above
Procedure, shortened: as §2

MV4-11 = test: as above
Procedure, shortened: as §2

Mono-Mac-6 = test: as above
Procedure, shortened: as §2

NOMO-1 = test: as above
Procedure, shortened: as §2

SHI-1 = test: as above
Procedure, shortened: as §2

THP-1 = test: as above
Procedure, shortened: as §2

HL-60 [5] = test: area under dose-response curve (viability, 1 nM-10 uM) (fraction (0-1)); higher = more sensitive
Procedure, shortened: as §1

CNC(=C[N+](=O)[O-])NCCSCc1ccc(CN(C)C)o1 [Ranitidine]
Details | IC50 (cell viability) [µM]
KCL-22 [1] | > 10

cell viability [%], HL-60 [2]
Details | 0.001 µM | 0.01 µM | 0.1 µM | 1 µM | 10 µM
co-treatment: AZD3965 100 nM | 103 | 102 | 99.6 | 107 | 100
co-treatment: DMSO vehicle | 104 | 87.7 | 105.91 | 106.4 | 96.1
co-treatment: GSK2194069 100 nM | 94.3 | 89.5 | 108 | 106 | 102
co-treatment: pictilisib 100 nM | 95.9 | 70.3 | 98.5 | 110 | 96.9

Details | area under dose-response curve, co-treatment: AZD3965 100 nM | area under dose-response curve, co-treatment: DMSO vehicle | area under dose-response curve, co-treatment: GSK2194069 100 nM | area under dose-response curve, co-treatment: pictilisib 100 nM | cell viability, 1 nM [%] | cell viability, 10 nM [%] | cell viability, 100 nM [%] | cell viability, 1000 nM [%] | cell viability, 10000 nM [%]
BV-173 | – | – | – | – | 96.7 | 96.1 | 105 | 96.9 | 108
HEL | – | – | – | – | 113 | 104 | 107 | 104 | 92.4
HL-60 [3] | – | – | – | – | 98.1 | 156 | 97.5 | 95.5 | 121
HL-60 [5] | < 0.0301 | < 0.0301 | < 0.0301 | < 0.0301 | – | – | – | – | –
K-562 | – | – | – | – | 108 | 92.1 | 93.5 | 97.3 | 103
KCL-22 [4] | – | – | – | – | 100 | 101 | 103 | 109 | 92.9
KG-1 | – | – | – | – | 104 | 85.8 | 126 | 174 | 163
KU-812 | – | – | – | – | 109 | 101 | 97.4 | 96.8 | 107
LAMA-84 | – | – | – | – | 107 | 89.3 | 105 | 104 | 102
ML-2 | – | – | – | – | 97.4 | 113 | 101 | 100 | 98.9
MOLM-13 | – | – | – | – | 97.9 | 94.2 | 91.6 | 102 | 117
MV4-11 | – | – | – | – | 98.5 | 109 | 108 | 114 | 104
Mono-Mac-6 | – | – | – | – | 94.6 | 96.6 | 115 | 95.6 | 113
NOMO-1 | – | – | – | – | 96.3 | 96.2 | 108 | 98.7 | 101
SHI-1 | – | – | – | – | 98.6 | 107 | 96.4 | 122 | 104
THP-1 | – | – | – | – | 105 | 103 | 98.2 | 99.6 | 102

O=C(C(=O)c1ccc(Br)cc1)c1ccc(Br)cc1 [4,4'-Dibromobenzil]
Details | IC50 (cell viability) [µM]
KCL-22 [1] | > 10

cell viability [%], HL-60 [2]
Details | 0.001 µM | 0.01 µM | 0.1 µM | 1 µM | 10 µM
co-treatment: AZD3965 100 nM | 105 | 105 | 99.5 | 94.7 | 102
co-treatment: DMSO vehicle | 102 | 100 | 99.8 | 96.7 | 101
co-treatment: GSK2194069 100 nM | 105 | 107.3 | 105.4 | 98.1 | 96.28
co-treatment: pictilisib 100 nM | 109 | 105 | 95.5 | 98.3 | 101.7

Details | area under dose-response curve, co-treatment: AZD3965 100 nM | area under dose-response curve, co-treatment: DMSO vehicle | area under dose-response curve, co-treatment: GSK2194069 100 nM | area under dose-response curve, co-treatment: pictilisib 100 nM | cell viability, 1 nM [%] | cell viability, 10 nM [%] | cell viability, 100 nM [%] | cell viability, 1000 nM [%] | cell viability, 10000 nM [%]
BV-173 | – | – | – | – | 104 | 117 | 112 | 105 | 117
HEL | – | – | – | – | 96.7 | 96.8 | 120 | 114 | 115
HL-60 [3] | – | – | – | – | 91.8 | 99.6 | 93.4 | 98.1 | 88.5
HL-60 [5] | < 0.0301 | < 0.0301 | < 0.0301 | < 0.0301 | – | – | – | – | –
K-562 | – | – | – | – | 101 | 90.3 | 114 | 100 | 112
KCL-22 [4] | – | – | – | – | 95.4 | 87.2 | 94.9 | 101 | 95.5
KG-1 | – | – | – | – | 95.5 | 98.6 | 101 | 100 | 91
KU-812 | – | – | – | – | 86.9 | 98.3 | 104 | 103 | 91.5
LAMA-84 | – | – | – | – | 98.8 | 101 | 109 | 106 | 96.9
ML-2 | – | – | – | – | 91.7 | 99.9 | 92.3 | 100 | 107
MOLM-13 | – | – | – | – | 87 | 83.8 | 80.4 | 87.5 | 93.8
MV4-11 | – | – | – | – | 101 | 92.1 | 107 | 85.3 | 89.3
Mono-Mac-6 | – | – | – | – | 109 | 101 | 94 | 109 | 97.9
NOMO-1 | – | – | – | – | 95.6 | 110 | 99.8 | 104 | 96.2
SHI-1 | – | – | – | – | 92.4 | 101 | 90 | 103 | 98.4
THP-1 | – | – | – | – | 98.2 | 103 | 100 | 95 | 97.6

CC(=O)N[C@@H](CS)C(=O)O [Acetylcysteine]
Details | IC50 (cell viability) [µM]
KCL-22 [1] | > 10

cell viability [%], HL-60 [2]
Details | 0.001 µM | 0.01 µM | 0.1 µM | 1 µM | 10 µM
co-treatment: AZD3965 100 nM | 99.1 | 99.8 | 105 | 102 | 91.6
co-treatment: DMSO vehicle | 94.2 | 101.13 | 104 | 96.1 | 93.7
co-treatment: GSK2194069 100 nM | 97.8 | 103 | 106 | 101 | 91.4
co-treatment: pictilisib 100 nM | 103 | 101.2 | 106 | 101 | 86.3

Details | area under dose-response curve, co-treatment: AZD3965 100 nM | area under dose-response curve, co-treatment: DMSO vehicle | area under dose-response curve, co-treatment: GSK2194069 100 nM | area under dose-response curve, co-treatment: pictilisib 100 nM | cell viability, 1 nM [%] | cell viability, 10 nM [%] | cell viability, 100 nM [%] | cell viability, 1000 nM [%] | cell viability, 10000 nM [%]
BV-173 | – | – | – | – | 109 | 96.7 | 92.2 | 98.9 | 95.2
HEL | – | – | – | – | 110 | 90.4 | 90 | 113 | 104
HL-60 [3] | – | – | – | – | 107 | 93.1 | 93.5 | 125 | 122
HL-60 [5] | < 0.0301 | < 0.0301 | < 0.0301 | < 0.0301 | – | – | – | – | –
K-562 | – | – | – | – | 106 | 97.9 | 77.2 | 96.2 | 103
KCL-22 [4] | – | – | – | – | 117 | 92.8 | 102 | 93.3 | 97.6
KG-1 | – | – | – | – | 113 | 98.3 | 101 | 88.9 | 101
KU-812 | – | – | – | – | 102 | 93.4 | 87.9 | 97.1 | 97
LAMA-84 | – | – | – | – | 96.2 | 96.8 | 88 | 101 | 101
ML-2 | – | – | – | – | 104 | 91.3 | 97.3 | 89.2 | 102
MOLM-13 | – | – | – | – | 107 | 107 | 81.8 | 110 | 105
MV4-11 | – | – | – | – | 112 | 102 | 102 | 111 | 112
Mono-Mac-6 | – | – | – | – | 114 | 96.3 | 97 | 100 | 105
NOMO-1 | – | – | – | – | 105 | 99 | 98.8 | 93.5 | 103
SHI-1 | – | – | – | – | 100 | 96.5 | 105 | 97.2 | 110
THP-1 | – | – | – | – | 103 | 98.8 | 101 | 100 | 102
